{
  "source": "patent US12343326B2",
  "about": "“Psychoactive medicines and their use for treating psychiatric and neurological conditions and disorders” (Transcend Therapeutics, Inc., priority 2021, dated 2025)",
  "assay_in_all_cases": "β-arrestin based GPCR screen (PathHunter / GPCRmax), antagonist mode",
  "key": {"168 GPCRs [1]": {"target": "168 GPCRs (Homo sapiens, UniProt O95838)", "settings": "GLP2R"}, "168 GPCRs [2]": {"target": "168 GPCRs (Homo sapiens, UniProt P07550)", "sequence (P07550 whole entry)": "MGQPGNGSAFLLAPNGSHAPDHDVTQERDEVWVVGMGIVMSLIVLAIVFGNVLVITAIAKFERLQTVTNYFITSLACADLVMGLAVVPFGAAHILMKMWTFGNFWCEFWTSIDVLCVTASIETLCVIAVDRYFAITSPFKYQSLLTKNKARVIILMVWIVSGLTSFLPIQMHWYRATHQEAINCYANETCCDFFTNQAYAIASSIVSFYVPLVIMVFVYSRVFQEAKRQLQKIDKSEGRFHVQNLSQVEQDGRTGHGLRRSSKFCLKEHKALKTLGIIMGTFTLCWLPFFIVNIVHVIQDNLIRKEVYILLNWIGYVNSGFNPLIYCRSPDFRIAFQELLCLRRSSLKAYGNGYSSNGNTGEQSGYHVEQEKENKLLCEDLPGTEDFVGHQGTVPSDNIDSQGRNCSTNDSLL", "settings": "ADRB2, Antagonist"}, "168 GPCRs [3]": {"target": "168 GPCRs (Homo sapiens, UniProt P11229)", "sequence (P11229 whole entry)": "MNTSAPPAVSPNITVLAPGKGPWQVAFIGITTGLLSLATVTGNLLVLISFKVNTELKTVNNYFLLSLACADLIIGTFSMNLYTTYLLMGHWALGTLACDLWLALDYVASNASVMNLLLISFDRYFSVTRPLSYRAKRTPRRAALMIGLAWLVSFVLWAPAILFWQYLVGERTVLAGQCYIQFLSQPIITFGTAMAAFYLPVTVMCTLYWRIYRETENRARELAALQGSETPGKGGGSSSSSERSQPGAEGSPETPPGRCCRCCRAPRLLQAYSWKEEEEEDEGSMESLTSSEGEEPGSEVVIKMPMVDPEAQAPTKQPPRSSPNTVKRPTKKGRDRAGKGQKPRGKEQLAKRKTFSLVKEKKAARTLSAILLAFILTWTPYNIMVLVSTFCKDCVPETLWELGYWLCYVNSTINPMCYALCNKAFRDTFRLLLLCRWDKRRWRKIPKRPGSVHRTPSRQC", "settings": "CHRM1, Antagonist"}, "168 GPCRs [4]": {"target": "168 GPCRs (Homo sapiens, UniProt P25105)", "settings": "PTAFR"}, "168 GPCRs [5]": {"target": "168 GPCRs (Homo sapiens, UniProt P28222)", "sequence (P28222 whole entry)": "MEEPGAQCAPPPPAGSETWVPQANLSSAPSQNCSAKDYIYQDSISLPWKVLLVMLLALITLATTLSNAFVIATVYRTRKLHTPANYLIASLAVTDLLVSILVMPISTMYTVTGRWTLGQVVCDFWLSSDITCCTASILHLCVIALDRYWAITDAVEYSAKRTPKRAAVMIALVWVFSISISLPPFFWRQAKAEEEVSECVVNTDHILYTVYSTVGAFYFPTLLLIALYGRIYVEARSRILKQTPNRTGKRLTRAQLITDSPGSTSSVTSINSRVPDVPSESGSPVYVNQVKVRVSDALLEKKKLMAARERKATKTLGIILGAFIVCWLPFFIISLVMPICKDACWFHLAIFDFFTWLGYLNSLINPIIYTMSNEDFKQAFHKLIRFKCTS", "settings": "HTR1B"}, "168 GPCRs [6]": {"target": "168 GPCRs (Homo sapiens, UniProt P28566)", "sequence (P28566 whole entry)": "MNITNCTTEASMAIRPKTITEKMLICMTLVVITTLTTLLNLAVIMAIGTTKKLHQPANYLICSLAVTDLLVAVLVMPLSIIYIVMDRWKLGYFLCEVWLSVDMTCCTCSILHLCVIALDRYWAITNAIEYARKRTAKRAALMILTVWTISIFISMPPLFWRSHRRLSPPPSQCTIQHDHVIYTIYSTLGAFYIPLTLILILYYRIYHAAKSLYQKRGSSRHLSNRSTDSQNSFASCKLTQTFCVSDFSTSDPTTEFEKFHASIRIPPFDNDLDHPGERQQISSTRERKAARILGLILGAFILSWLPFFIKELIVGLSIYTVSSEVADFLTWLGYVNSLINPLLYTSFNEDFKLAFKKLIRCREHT", "settings": "HTR1E"}, "168 GPCRs [7]": {"target": "T1, 168 GPCRs (Homo sapiens, UniProt P30939)", "T1 sequence (P30939 1-366)": "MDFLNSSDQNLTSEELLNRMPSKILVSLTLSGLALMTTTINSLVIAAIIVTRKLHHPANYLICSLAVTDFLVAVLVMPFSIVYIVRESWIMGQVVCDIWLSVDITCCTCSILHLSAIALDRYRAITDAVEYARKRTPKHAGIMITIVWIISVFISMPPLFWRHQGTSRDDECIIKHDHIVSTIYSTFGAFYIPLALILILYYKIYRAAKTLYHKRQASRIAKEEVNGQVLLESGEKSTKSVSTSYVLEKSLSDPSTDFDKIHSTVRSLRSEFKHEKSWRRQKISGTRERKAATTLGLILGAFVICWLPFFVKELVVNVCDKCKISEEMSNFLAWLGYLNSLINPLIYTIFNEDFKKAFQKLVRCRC", "settings": "HTR1F"}, "168 GPCRs [8]": {"target": "168 GPCRs (Homo sapiens, UniProt P30989)", "sequence (P30989 whole entry)": "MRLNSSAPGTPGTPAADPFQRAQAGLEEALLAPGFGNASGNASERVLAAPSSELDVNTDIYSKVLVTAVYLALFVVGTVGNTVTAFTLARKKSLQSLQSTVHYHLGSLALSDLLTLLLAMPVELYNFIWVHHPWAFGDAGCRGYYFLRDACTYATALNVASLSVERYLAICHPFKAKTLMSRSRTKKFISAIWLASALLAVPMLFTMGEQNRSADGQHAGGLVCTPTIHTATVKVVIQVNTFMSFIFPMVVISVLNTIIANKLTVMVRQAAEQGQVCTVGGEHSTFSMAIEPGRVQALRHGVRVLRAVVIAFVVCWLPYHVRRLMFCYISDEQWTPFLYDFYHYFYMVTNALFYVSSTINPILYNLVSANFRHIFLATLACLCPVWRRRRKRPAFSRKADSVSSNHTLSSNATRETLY"}, "168 GPCRs [9]": {"target": "168 GPCRs (Homo sapiens, UniProt P32249)", "sequence (P32249 whole entry)": "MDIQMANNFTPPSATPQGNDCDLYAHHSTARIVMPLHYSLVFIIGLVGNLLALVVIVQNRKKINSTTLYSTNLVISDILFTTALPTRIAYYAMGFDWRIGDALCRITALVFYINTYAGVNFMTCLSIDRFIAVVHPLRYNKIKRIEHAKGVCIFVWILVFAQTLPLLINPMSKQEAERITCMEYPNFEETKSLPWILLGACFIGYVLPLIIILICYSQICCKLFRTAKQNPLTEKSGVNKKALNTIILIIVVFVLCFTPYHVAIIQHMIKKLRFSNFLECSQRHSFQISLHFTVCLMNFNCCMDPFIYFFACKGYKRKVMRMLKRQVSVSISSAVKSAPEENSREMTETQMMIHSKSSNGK"}, "168 GPCRs [10]": {"target": "168 GPCRs (Homo sapiens, UniProt P32302)", "sequence (P32302 whole entry)": "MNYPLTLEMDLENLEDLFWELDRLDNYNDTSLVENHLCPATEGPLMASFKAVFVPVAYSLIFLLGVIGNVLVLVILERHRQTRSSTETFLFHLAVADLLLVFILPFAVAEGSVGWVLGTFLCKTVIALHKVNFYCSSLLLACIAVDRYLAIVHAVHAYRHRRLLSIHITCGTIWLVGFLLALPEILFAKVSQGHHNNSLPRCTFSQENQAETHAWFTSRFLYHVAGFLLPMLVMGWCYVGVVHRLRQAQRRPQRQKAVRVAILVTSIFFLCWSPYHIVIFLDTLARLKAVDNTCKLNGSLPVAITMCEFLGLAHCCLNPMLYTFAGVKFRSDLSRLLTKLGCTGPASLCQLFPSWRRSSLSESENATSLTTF"}, "168 GPCRs [11]": {"target": "168 GPCRs (Homo sapiens, UniProt P34972)"}, "168 GPCRs [12]": {"target": "168 GPCRs (Homo sapiens, UniProt P34981)", "settings": "TRHR"}, "168 GPCRs [13]": {"target": "168 GPCRs (Homo sapiens, UniProt P35462)", "sequence (P35462 whole entry)": "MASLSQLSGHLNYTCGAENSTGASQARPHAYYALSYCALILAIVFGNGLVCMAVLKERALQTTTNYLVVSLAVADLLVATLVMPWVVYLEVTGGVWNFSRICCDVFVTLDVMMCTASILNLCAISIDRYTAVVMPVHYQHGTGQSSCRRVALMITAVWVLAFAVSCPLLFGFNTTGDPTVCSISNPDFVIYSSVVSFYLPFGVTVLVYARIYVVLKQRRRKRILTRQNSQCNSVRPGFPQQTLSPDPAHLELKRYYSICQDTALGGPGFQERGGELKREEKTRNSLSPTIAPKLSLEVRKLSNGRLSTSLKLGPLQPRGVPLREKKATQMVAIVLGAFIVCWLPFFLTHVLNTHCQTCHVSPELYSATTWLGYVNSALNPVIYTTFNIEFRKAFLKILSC"}, "168 GPCRs [14]": {"target": "168 GPCRs (Homo sapiens, UniProt P37288)", "settings": "AVPR1A, Antagonist"}, "168 GPCRs [15]": {"target": "168 GPCRs (Homo sapiens, UniProt P43088)", "settings": "PTGFR"}, "168 GPCRs [16]": {"target": "168 GPCRs (Homo sapiens, UniProt P47872)", "sequence (P47872 23-440)": "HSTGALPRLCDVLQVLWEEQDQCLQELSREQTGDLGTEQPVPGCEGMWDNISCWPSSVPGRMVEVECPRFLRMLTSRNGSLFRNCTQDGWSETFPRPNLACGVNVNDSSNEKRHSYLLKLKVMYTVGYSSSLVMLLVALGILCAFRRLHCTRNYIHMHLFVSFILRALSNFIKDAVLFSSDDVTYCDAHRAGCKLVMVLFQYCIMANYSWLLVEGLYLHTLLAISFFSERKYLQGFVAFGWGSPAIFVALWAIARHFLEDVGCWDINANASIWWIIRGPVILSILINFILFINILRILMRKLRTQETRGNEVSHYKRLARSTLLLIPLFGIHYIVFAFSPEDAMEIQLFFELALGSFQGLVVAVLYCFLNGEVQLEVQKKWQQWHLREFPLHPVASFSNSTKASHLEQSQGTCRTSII", "settings": "SCTR"}, "168 GPCRs [17]": {"target": "168 GPCRs (Homo sapiens, UniProt P49019)", "settings": "GPR109B"}, "168 GPCRs [18]": {"target": "168 GPCRs (Homo sapiens, UniProt P51684)", "sequence (P51684 whole entry)": "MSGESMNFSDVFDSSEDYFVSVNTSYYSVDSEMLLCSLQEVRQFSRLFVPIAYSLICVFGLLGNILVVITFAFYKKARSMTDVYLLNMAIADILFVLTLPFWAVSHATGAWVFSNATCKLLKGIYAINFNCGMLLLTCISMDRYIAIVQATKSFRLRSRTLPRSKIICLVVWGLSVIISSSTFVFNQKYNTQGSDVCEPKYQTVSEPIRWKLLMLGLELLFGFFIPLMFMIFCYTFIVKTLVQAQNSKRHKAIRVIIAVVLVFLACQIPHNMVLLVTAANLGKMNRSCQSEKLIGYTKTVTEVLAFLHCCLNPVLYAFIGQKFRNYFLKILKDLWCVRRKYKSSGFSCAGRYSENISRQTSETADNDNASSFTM", "settings": "CCR6, Antagonist"}, "168 GPCRs [19]": {"target": "168 GPCRs (Homo sapiens, UniProt Q8TDS5)", "sequence (Q8TDS5 whole entry)": "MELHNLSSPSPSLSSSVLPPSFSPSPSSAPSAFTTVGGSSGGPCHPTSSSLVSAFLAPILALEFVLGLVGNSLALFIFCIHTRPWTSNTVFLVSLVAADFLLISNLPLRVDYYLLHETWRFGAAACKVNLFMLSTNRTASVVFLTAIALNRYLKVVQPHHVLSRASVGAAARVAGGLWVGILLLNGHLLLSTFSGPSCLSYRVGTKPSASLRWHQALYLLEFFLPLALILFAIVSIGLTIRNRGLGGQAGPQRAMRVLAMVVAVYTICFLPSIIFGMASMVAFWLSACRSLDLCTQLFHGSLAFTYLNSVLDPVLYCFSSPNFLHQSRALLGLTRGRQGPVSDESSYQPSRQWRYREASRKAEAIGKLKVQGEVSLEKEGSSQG"}, "168 GPCRs [20]": {"target": "168 GPCRs (Homo sapiens, UniProt Q9HC97)", "sequence (Q9HC97 whole entry)": "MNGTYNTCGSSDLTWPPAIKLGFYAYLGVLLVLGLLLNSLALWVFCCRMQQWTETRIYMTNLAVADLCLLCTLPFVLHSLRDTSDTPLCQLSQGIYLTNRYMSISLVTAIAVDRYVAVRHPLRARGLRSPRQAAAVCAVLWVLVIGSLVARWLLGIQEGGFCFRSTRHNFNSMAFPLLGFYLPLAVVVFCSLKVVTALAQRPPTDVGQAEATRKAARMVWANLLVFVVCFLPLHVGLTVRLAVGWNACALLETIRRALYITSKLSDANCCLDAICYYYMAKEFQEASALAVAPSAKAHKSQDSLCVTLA"}},
  "data": [
    {"smiles": "CNC(C)C(=O)c1ccc2c(c1)OCO2", "note": "(stereo not shown) [methylone, 3,4-methylenedioxy-N-methylcathinone]", "values": [
      {"measurement": "activity at 10 µM", "setting": "168 GPCRs [1]; Antagonist mode, 10 uM", "value": 5.4, "unit": "%"},
      {"measurement": "activity at 1 µM", "setting": "168 GPCRs [1]; Antagonist, 1 uM", "value": 5.4, "unit": "%"},
      {"measurement": "activity at 1 µM", "setting": "168 GPCRs [2]; 1 uM", "value": 18.1, "unit": "%"},
      {"measurement": "activity at 10 µM", "setting": "168 GPCRs [2]; 10 uM", "value": 20.4, "unit": "%"},
      {"measurement": "activity at 1 µM", "setting": "168 GPCRs [3]; 1 uM", "value": 15.8, "unit": "%"},
      {"measurement": "activity at 10 µM", "setting": "168 GPCRs [3]; 10 uM", "value": 2, "unit": "%"},
      {"measurement": "activity at 10 µM", "setting": "168 GPCRs [4]; Antagonist mode, 10 uM", "value": -6.7, "unit": "%"},
      {"measurement": "activity at 1 µM", "setting": "168 GPCRs [4]; Antagonist, 1 uM", "value": 2, "unit": "%"},
      {"measurement": "activity at 10 µM", "setting": "168 GPCRs [5]; Antagonist mode, 10 uM", "value": -6.2, "unit": "%"},
      {"measurement": "activity at 1 µM", "setting": "168 GPCRs [5]; Antagonist, 1 uM", "value": -9.5, "unit": "%"},
      {"measurement": "activity at 10 µM", "setting": "168 GPCRs [6]; Antagonist mode, 10 uM", "value": 13.2, "unit": "%"},
      {"measurement": "activity at 1 µM", "setting": "168 GPCRs [6]; Antagonist, 1 uM", "value": 7.6, "unit": "%"},
      {"measurement": "activity at 10 µM", "setting": "168 GPCRs [7]; Antagonist mode, 10 uM", "value": 9.2, "unit": "%"},
      {"measurement": "activity at 1 µM", "setting": "168 GPCRs [7]; Antagonist, 1 uM", "value": 14.4, "unit": "%"},
      {"measurement": "activity at 10 µM", "setting": "168 GPCRs [8]; NTSR1, Antagonist mode, 10 uM", "value": -1.7, "unit": "%"},
      {"measurement": "activity at 1 µM", "setting": "168 GPCRs [8]; NTSR1, Antagonist, 1 uM", "value": -0.7, "unit": "%"},
      {"measurement": "activity at 10 µM", "setting": "168 GPCRs [9]; EBI2, Antagonist mode, 10 uM", "value": 2.6, "unit": "%"},
      {"measurement": "activity at 1 µM", "setting": "168 GPCRs [9]; EBI2, Antagonist, 1 uM", "value": 0.6, "unit": "%"},
      {"measurement": "activity at 10 µM", "setting": "168 GPCRs [10]; CXCR5, Antagonist mode, 10 uM", "value": -15.1, "unit": "%"},
      {"measurement": "activity at 1 µM", "setting": "168 GPCRs [10]; CXCR5, Antagonist, 1 uM", "value": -4.3, "unit": "%"},
      {"measurement": "activity at 10 µM", "setting": "168 GPCRs [11]; CNR2, Antagonist mode, 10 uM", "value": -3.2, "unit": "%"},
      {"measurement": "activity at 1 µM", "setting": "168 GPCRs [11]; CNR2, Antagonist, 1 uM", "value": 3.6, "unit": "%"},
      {"measurement": "activity at 10 µM", "setting": "168 GPCRs [12]; Antagonist mode, 10 uM", "value": 2.8, "unit": "%"},
      {"measurement": "activity at 1 µM", "setting": "168 GPCRs [12]; Antagonist, 1 uM", "value": -7.2, "unit": "%"},
      {"measurement": "activity at 10 µM", "setting": "168 GPCRs [13]; DRD3, Antagonist mode, 10 uM", "value": -17.8, "unit": "%"},
      {"measurement": "activity at 1 µM", "setting": "168 GPCRs [13]; DRD3, Antagonist, 1 uM", "value": -12, "unit": "%"},
      {"measurement": "activity at 1 µM", "setting": "168 GPCRs [14]; 1 uM", "value": -3, "unit": "%"},
      {"measurement": "activity at 10 µM", "setting": "168 GPCRs [14]; 10 uM", "value": 2.8, "unit": "%"},
      {"measurement": "activity at 10 µM", "setting": "168 GPCRs [15]; Antagonist mode, 10 uM", "value": 0, "unit": "%"},
      {"measurement": "activity at 1 µM", "setting": "168 GPCRs [15]; Antagonist, 1 uM", "value": 0.9, "unit": "%"},
      {"measurement": "activity at 10 µM", "setting": "168 GPCRs [16]; Antagonist mode, 10 uM", "value": 2.5, "unit": "%"},
      {"measurement": "activity at 1 µM", "setting": "168 GPCRs [16]; Antagonist, 1 uM", "value": 5.3, "unit": "%"},
      {"measurement": "activity at 10 µM", "setting": "168 GPCRs [17]; Antagonist mode, 10 uM", "value": -20.2, "unit": "%"},
      {"measurement": "activity at 1 µM", "setting": "168 GPCRs [17]; Antagonist, 1 uM", "value": -16.5, "unit": "%"},
      {"measurement": "activity at 1 µM", "setting": "168 GPCRs [18]; 1 uM", "value": 9.3, "unit": "%"},
      {"measurement": "activity at 10 µM", "setting": "168 GPCRs [18]; 10 uM", "value": -1.6, "unit": "%"},
      {"measurement": "activity at 10 µM", "setting": "168 GPCRs [19]; OXER1, Antagonist mode, 10 uM", "value": 7.6, "unit": "%"},
      {"measurement": "activity at 1 µM", "setting": "168 GPCRs [19]; OXER1, Antagonist, 1 uM", "value": 2.9, "unit": "%"},
      {"measurement": "activity at 10 µM", "setting": "168 GPCRs [20]; GPR35, Antagonist mode, 10 uM", "value": 7.3, "unit": "%"},
      {"measurement": "activity at 1 µM", "setting": "168 GPCRs [20]; GPR35, Antagonist, 1 uM", "value": 13.2, "unit": "%"}
    ]}
  ]
}
